In PubChem BioAssay (NCI) one finds TGI data, which are given here for eight compounds.

Experiment in all cases: growth of human tumour cells (NCI), 48 h
Assay [1] deals with OVCAR-4 ovarian.
Assay [2] relates to NCI-H23 lung.
Assay [3] has as its system HCC-2998 colon.
The subject of assay [4] is UACC-62 melanoma.
The test system of assay [5] is TK-10 renal.
Assay [6] relates to U251 CNS.
Assay [7] deals with NCI-H226 lung.
Assay [8] concerns UACC-257 melanoma.
The subject of assay [9] is MCF7 breast.
Assay [10] has as its system OVCAR-5 ovarian.
Assay [11] concerns PC-3 prostate.
The subject of assay [12] is 786-0 renal.
Assay [13] concerns ACHN renal.
The subject of assay [14] is HL-60(TB) leukemia.
Assay [15] deals with SK-MEL-5 melanoma.
Assay [16] deals with SR leukemia.
Assay [17] concerns SNB-19 CNS.

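Dose response: 5 concentrations. Exposure: 48 h. Format: 96-well plates. Endpoint: linear interpolation; highest concentration if not reached. TGI: concentration producing complete growth inhibition.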

As to `CC(C)Oc1cccc(N2C(=NCCc3c[nH]c4ccccc34)Nc3ccncc3S2(=O)=O)c1`, the TGI in [1], in assay [2], in assay [3], in [4], in assay [5] and in [6] was more than 100 µM each time. Moreover, the TGI was more than 100 µM in assay [7]; more than 100 µM in [8]; more than 100 µM in assay [9]; more than 100 µM in assay [10]; more than 100 µM in [11]; 5.35 µM in [12]. Besides, the TGI in assay [13] was more than 100 µM; in [14] it was 65.4 µM; in assay [15], more than 100 µM; in assay [16], more than 100 µM; in assay [17], more than 100 µM.
With `O=C1/C(=C/c2ccc(Oc3ccccc3)cc2)N=C(c2ccccc2)N1c1ccc(S(=O)(=O)Nc2nccs2)cc1`, the TGI in [1] is more than 100 µM; in assay [2], more than 100 µM; in assay [3] it was 6.87 µM; in [4], more than 100 µM; in assay [5], more than 100 µM; in [6], more than 100 µM. Besides, the TGI in [7] was more than 100 µM; in [8] it was 92.5 µM; in [9], 38 µM; in assay [10] it was more than 100 µM; in assay [11], more than 100 µM; in assay [12] it was more than 100 µM. The TGI in [13] was more than 100 µM; in [14], 34.9 µM; in assay [15] it was 49.8 µM; in assay [16] it was 25 µM; in [17], more than 100 µM.
Consider `NC(=O)SCCC(N)C(=O)O` (stereo unspecified), for which the TGI in assay [1], in assay [2], in assay [3], in [4], in assay [5] and in [6] was more than 100 µM throughout. The TGI in [7], in assay [8], in [9], in assay [10], in [11] and in assay [12] was more than 100 µM throughout. Further, the TGI in assay [13], in assay [14], in assay [15], in [16] and in assay [17] was more than 100 µM in each case.
`CCN(CC)c1ccc(/C=C/C(=O)c2cc(C(C)(C)C)c(O)c(C(C)(C)C)c2)cc1`: the TGI in [1] was more than 100 µM; in [2] it was more than 100 µM; in [3], 37 µM; in [4], more than 100 µM; in assay [5], 97.6 µM; in assay [6], 11.9 µM. Further, the TGI in [7] is 99.1 µM; in assay [8], more than 100 µM; in [9] it was more than 100 µM; in [10] it was more than 44.8 µM; in assay [11] it was more than 100 µM; in assay [12] it was more than 81.2 µM. Moreover, the TGI is more than 100 µM in assay [13]; more than 39.2 µM in assay [14]; 70.9 µM in [15]; more than 24.5 µM in [16]; more than 100 µM in [17].
With `O=C1NNC2NC(=O)C3(NN2C1=O)c1ccccc1-c1ccccc13` (stereo unspecified), the TGI in [1], in assay [2], in assay [3], in assay [4], in assay [5] and in assay [6] was more than 100 µM each time. The TGI in assay [7], in assay [8], in assay [9], in assay [10], in [11] and in assay [12] was more than 100 µM throughout. Further, the TGI in assay [13], in [14], in assay [15], in assay [16] and in assay [17] was more than 100 µM in each case.
`O=C1NC(N2CCCCC2)=N/C1=C\c1ccc(Cl)cc1`: the TGI in [1] was more than 100 µM; in assay [2] it was more than 100 µM; in [3], 60.5 µM; in assay [4], more than 100 µM; in [5] it was more than 100 µM; in assay [6] it was more than 100 µM. Further, the TGI in assay [7] is 96.1 µM; in assay [8], more than 100 µM; in assay [9] it was more than 100 µM; in assay [10], more than 100 µM; in assay [11], more than 100 µM; in [12], 79.9 µM. For the same compound, the TGI in assay [13], in assay [14], in assay [15], in assay [16] and in assay [17] was more than 100 µM each time.
Regarding `OC(c1ccc2c(c1)OCO2)c1ccc2c(c1)OCO2`, the TGI in assay [1], in assay [2], in [3], in [4], in assay [5] and in [6] was more than 100 µM throughout. The TGI in assay [7], in assay [8], in assay [9], in [10], in assay [11] and in [12] was more than 100 µM each time. Also, the TGI in assay [13], in assay [14], in assay [15], in [16] and in assay [17] was more than 100 µM each time.
For `CN(C(=O)C1=CCC2(CC1)OCCO2)c1ccccc1I`, the TGI in assay [1], in assay [2], in assay [3], in [4], in assay [5] and in assay [6] was more than 100 µM throughout. In addition, the TGI in [7], in [8], in assay [9], in assay [10], in assay [11] and in assay [12] was more than 100 µM throughout. For the same compound, the TGI in assay [13], in [14], in assay [15], in [16] and in [17] was more than 100 µM in each case.
